# ChEMBL document CHEMBL1201862, “PubChem BioAssay data set” (2004)
# Active and inactive are the calls of the source.
# Key:
# [1] = growth suppression of beta-catenin-knockout colon cells, dose response, cell-based, HCT116, human colon tumor (AID 1045); format: functional;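 further: HCT116 colon tumor cells with beta catenin knocked out; cells exposed to compound for 60 hours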
# [2] = growth suppression of PTEN-null colon cells, dose response, cell-based, HCT116 PTEN knockout (AID 1047); format: functional;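 further: HCT116 colon tumor cells with PTEN knocked out; cells exposed to compound for 60 hours before readout; potency for loss of cell viability measured by luminescence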
# [3] = biological target: T1, Heat shock factor protein 1 (Mus musculus, UniProt P38532); experiment: inhibition of MG132-induced HSE-luciferase signal, confirmation, cell-based, NIH3T3, luminescence, dose retest (AID 2382); format: functional;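 further: NIH3T3 fibroblasts with HSF1-driven luciferase reporter stressed by proteasome inhibitor MG132; luminescence from HSF1-driven luciferase expression after 8 hours of MG132 stress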
# T1 sequence (P38532 whole entry): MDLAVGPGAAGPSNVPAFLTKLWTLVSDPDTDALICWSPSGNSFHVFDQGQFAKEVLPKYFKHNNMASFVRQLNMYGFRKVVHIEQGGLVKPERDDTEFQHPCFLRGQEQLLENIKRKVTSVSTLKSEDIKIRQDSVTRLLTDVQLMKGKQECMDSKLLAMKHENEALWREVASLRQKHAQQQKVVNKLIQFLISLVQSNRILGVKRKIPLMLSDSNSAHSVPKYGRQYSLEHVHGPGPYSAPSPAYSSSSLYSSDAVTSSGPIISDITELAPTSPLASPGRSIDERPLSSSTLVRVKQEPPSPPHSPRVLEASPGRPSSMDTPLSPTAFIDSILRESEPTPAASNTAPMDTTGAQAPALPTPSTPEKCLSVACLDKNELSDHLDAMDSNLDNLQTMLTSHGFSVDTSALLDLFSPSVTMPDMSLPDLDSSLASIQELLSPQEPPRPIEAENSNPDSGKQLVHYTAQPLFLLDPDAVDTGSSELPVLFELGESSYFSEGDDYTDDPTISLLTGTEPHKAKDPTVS
# Cytochrome P450 2C19 = Cytochrome P450 2C19 (Homo sapiens, UniProt P33261); experiment: Cytochrome panel assay with activity outcomes. Panel member name: p450-cyp2c19 Compounds with AC50 equal or less than 10 uM are considered active; format: functional
# [4] = Luminescence Cell-Based Dose Confirmation HTS to Identify Inhibitors of Platelet Dense Granule Release. [Related pubchem assays: 1663 (Primary HTS), 1678 (Summary of Project)]; format: functional
# [5] = biological target: Luciferin 4-monooxygenase (Photinus pyralis, UniProt P08659); experiment: firefly luciferase enzyme inhibitors, dose response, biochemical, luminescence (AID 1891)
# [6] = Luminescence Cell-Based Dose Retest to Confirm Inhibitors of Cancer Stem Cells. [Related pubchem assays (depositor defined):AID2717, AID2721]; format: functional; settings: Homo sapiens
# Cytochrome P450 1A2 = biological target: T2, Cytochrome P450 1A2 (Homo sapiens, UniProt P05177);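 further: PubChem cytochrome P450 panel assay, CYP1A2 panel member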
# T2 sequence (P05177 whole entry): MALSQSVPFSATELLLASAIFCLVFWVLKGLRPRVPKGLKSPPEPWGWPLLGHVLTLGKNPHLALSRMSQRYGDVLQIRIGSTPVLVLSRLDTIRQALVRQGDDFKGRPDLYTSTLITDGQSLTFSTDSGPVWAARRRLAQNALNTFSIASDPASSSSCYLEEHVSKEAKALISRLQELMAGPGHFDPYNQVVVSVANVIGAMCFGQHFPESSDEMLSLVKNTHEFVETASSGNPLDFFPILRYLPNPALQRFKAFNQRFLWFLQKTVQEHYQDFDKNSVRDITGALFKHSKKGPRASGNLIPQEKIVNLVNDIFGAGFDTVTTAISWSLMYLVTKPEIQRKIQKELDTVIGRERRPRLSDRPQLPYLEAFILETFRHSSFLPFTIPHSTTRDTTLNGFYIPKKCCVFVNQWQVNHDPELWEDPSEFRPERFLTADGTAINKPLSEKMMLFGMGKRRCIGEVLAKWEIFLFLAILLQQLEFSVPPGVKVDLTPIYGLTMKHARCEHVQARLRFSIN
# INS1 = experiment: beta cell apoptosis inhibitors, cytokine rescue, dose response, luminescence, retest (AID 449756); format: functional, cell-based; settings: Rattus norvegicus;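 further: cell death triggered by IL-1 beta plus TNF-alpha plus IFN-gamma mixture; protective hits raise ATP signal compared with cytokine alone wells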
# [7] = inhibitors of intracellular T. cruzi replication, confirmation, NIH3T3 host cells, beta-gal luminescence (AID 2044); format: functional, cell-based;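 further: intracellular parasites grown in NIH/3T3 mouse fibroblasts as host cells; luminescent beta-galactosidase reporter signal from transgenic T. cruzi replicating inside host cells; inhibitors lower the luminescence signal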
# [8] = cytotoxicity toward NIH3T3 fibroblasts, dose response, counter-screen, cell-based, ATP luminescence, mouse fibroblasts (AID 2010); format: functional;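 further: cells exposed to compound for about 90 hours before reading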
# Sequence of Luciferin 4-monooxygenase (P08659 whole entry): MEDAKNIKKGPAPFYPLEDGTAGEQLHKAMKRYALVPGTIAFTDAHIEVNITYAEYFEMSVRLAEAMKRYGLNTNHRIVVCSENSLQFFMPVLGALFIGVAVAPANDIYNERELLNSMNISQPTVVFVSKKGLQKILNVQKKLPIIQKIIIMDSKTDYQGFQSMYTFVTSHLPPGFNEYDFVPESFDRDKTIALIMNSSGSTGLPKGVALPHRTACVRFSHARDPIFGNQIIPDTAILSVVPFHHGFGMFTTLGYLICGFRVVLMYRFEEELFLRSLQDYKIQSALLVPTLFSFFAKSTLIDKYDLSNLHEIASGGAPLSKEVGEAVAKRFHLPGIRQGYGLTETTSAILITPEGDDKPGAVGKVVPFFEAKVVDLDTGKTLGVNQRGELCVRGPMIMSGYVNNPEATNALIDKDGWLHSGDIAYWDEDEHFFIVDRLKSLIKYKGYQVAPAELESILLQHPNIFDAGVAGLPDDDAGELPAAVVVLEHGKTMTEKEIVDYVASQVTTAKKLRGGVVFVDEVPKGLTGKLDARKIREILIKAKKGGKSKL
# Sequence of Cytochrome P450 2C19 (P33261 whole entry): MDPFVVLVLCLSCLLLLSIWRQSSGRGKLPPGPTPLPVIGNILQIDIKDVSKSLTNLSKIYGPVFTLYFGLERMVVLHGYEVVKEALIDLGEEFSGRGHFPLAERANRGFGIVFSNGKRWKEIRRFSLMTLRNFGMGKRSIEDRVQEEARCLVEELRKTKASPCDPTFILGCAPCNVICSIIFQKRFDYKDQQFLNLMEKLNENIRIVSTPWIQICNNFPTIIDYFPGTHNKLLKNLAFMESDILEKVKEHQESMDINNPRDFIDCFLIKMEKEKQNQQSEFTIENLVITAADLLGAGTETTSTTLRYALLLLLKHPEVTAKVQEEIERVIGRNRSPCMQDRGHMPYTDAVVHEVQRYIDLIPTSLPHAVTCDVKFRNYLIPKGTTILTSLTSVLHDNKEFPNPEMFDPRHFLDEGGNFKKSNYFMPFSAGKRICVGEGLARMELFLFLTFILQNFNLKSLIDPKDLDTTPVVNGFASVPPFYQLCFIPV
smiles,measurement,setting,value
Cc1sc2nc(CN3CCC(C)CC3)nc(Cl)c2c1C,EC50,[1],14.5 µM (active)
same,EC50,[2],18.5 µM (active)
Fc1ccc(-c2nc3c(-c4ccc(Cl)cc4)cnn3cc2CCN2CCOCC2)cc1,EC50,[3],> 195 µM (not active)
Fc1cnc(N2CCc3ccccc32)nc1N1CCc2ccccc21,EC50,[1],25.5 µM (active)
same,EC50,[2],30 µM (active)
Oc1nc2cc3c(cc2cc1C(c1nnnn1C1CCCC1)N1CCSCC1)OCCO3 (centres undefined),EC50,[1],94.3 µM (active)
same,EC50,[2],28.9 µM (active)
CN(C)c1ncc2nc(-c3ccccc3)c(=O)n(C)c2n1,AC50,Cytochrome P450 2C19; read-out: AC50,39.8 µM (inconclusive)
Cc1ccc(-c2nc3cccnc3o2)cc1NC(=O)COc1ccc(Cl)cc1C,EC50,[1],14.6 µM (active)
same,EC50,[2],5.15 µM (active)
COc1ccc(CCn2c(=N)c(C(=O)NCC3CCCO3)cc3c(=O)n4ccccc4nc32)cc1OC (centres undefined),EC50,[4],> 112 µM (not active)
same,EC50,[5],> 112 µM (not active)
COc1cccc(-c2nnc(-c3ccco3)o2)c1,EC50,[4],40.9 µM (active)
same,EC50,[5],> 112 µM (not active)
COc1ccc(NC(=O)CN(C)CC(=O)Nc2ccc3c(c2)CCC3)cc1,EC50,[3],> 195 µM (not active)
Cc1ccc(C(=O)Nc2ccc(Br)c(C(F)(F)F)c2)cc1,EC50,[1],23.8 µM (active)
same,EC50,[2],19.7 µM (active)
CCCCC(CC)CN1C(=O)/C(=C/c2c[nH]nc2-c2ccccc2)SC1=S (centres undefined),EC50,[1],21.1 µM (active)
same,EC50,[2],21.3 µM (active)
O=C(Oc1ccccc1Cl)c1ccc(-n2cncn2)nc1,EC50,[3],> 195 µM (not active)
Cc1ccc(C)c(Nc2nc(N)c3ccccc3n2)c1,EC50,[4],11 µM (active)
same,EC50,[5],12.2 µM (active)
COc1cc([C@@H]2c3cc4c(cc3[C@@H](O)[C@H]3COC(=O)[C@H]23)OCO4)cc(OC)c1O[Si](C)(C)C(C)(C)C,AC50,[6],3.64 µM (active)
COC(=O)C1CCC(C)(C(=O)Nc2ccccc2)C1(C)C (centres undefined),AC50,Cytochrome P450 1A2,15.8 µM (inconclusive)
CC(C)(C)NC(=O)Cn1nnc(-c2ccc(OCc3c(F)cccc3Cl)cc2)n1,AC50,[6],1.33 µM (active)
O=C1NC(=O)N(CCC2=CCCCC2)C(=O)/C1=C\NNc1ccccc1,AC50,[6],2.46 µM (active)
COc1ccc(NCc2nnc(SCC(=O)Nc3cc(C(F)(F)F)ccc3Cl)o2)cc1,EC50,[3],> 195 µM (not active)
NC(=O)C1CCN(CC(=O)Nc2nc(-c3ccccc3)cs2)CC1,EC50,[3],> 195 µM (not active)
CCN(CC)C(=O)CN1C(=O)/C(=C/c2ccccc2)SC1=S,EC50,[3],> 195 µM (not active)
C=C(C)COc1ccc2c(C)c(CC(=O)OC)c(=O)oc2c1C,EC50,[1],31.9 µM (active)
same,EC50,[2],81.2 µM (active)
Cc1nnc2sc(-c3ccc(-c4ccc(Cl)c(C(F)(F)F)c4)o3)nn12,EC50,[4],> 112 µM (not active)
same,EC50,[5],> 112 µM (not active)
CCc1ccc(N(C(=O)c2csnn2)C(C(=O)NC(C)(C)C)c2ccncc2)cc1 (centres undefined),AC50,Cytochrome P450 2C19; read-out: AC50,2.82 µM (inconclusive)
O=C(O)CC(NC(=O)C(c1ccccc1)c1ccccc1)c1ccco1 (centres undefined),EC50,[4],> 112 µM (not active)
same,EC50,[5],> 112 µM (not active)
CCCCn1c(=O)c(C(=O)NCc2ccc(Cl)cc2)c(O)c2ccccc21,AC50,[6],5.25 µM (active)
Nn1c(SCC(=O)NC2CCCC2)nnc1-c1ccccc1F,EC50,[3],> 195 µM (not active)
CC1CCCN(C(=O)C2(NC(=O)Nc3cccc(F)c3)CCCCC2)C1 (centres undefined),EC50,[3],> 195 µM (not active)
COC(=O)[C@@]1(Cc2ccccc2)[C@H]2c3cc(C(=O)N4CCCC4)[nH]c3C[C@H]2CN1C(=O)c1ccccc1,AC50,Cytochrome P450 1A2,1.26 µM (inconclusive)
CC(C)(C)C(=O)OCc1nc(-c2ccc3c(c2)OCCO3)cs1,EC50,[3],> 195 µM (not active)
O=C(COc1ccc(Cl)cc1Cl)NN=C1c2ccccc2-c2ccccc21,EC50,[1],6.99 µM (active)
same,EC50,[2],7.45 µM (active)
CCOC(=O)C1=C(CSc2nc3ccccc3s2)NC(=O)NC1c1cccc([N+](=O)[O-])c1 (centres undefined),AC50,Cytochrome P450 2C19; read-out: AC50,1.58 µM (inconclusive)
CN1CCN(c2ncc3nc(-c4cccc(C#N)c4)c(=O)n(Cc4ccc(F)cc4)c3n2)CC1,AC50,Cytochrome P450 2C19; read-out: AC50,10 µM (inconclusive)
Cc1c(C=C2C(=O)N(C)C(=O)N(C)C2=O)c(=O)n(-c2ccccc2)n1C,EC50,[3],> 195 µM (not active)
COc1cccc(NC(S)=NN2CCN(C)CC2)c1,AC50,Cytochrome P450 2C19; read-out: AC50,28.2 µM (inconclusive)
COc1ccc(-c2nc3scc(-c4ccc(OC)c(OC)c4)c3c(=O)o2)cc1,EC50,[1],16.4 µM (active)
same,EC50,[2],24.7 µM (active)
CCCn1c(SCC(=O)N2CCCC(C)C2)nnc1-c1ccccn1 (centres undefined),EC50,[4],> 112 µM (not active)
same,EC50,[5],> 112 µM (not active)
Cc1ccc2[nH]c(/C(C#N)=C\c3ccc(Oc4ccc([N+](=O)[O-])cn4)cc3)nc2c1,EC50,[1],46.9 µM (active)
same,EC50,[2],76.4 µM (active)
O=C(CC1Nc2ccccc2NC1=O)Nc1ccccc1NC(=O)CC1Nc2ccccc2NC1=O (centres undefined),EC50,[3],> 195 µM (not active)
O=C(CSc1nc(-c2ccccc2)cc(C(F)(F)F)n1)c1cccc([N+](=O)[O-])c1,AC50,[6],5.41 µM (active)
CCOc1ccc(NC(=O)Nc2cc(C)ccc2F)cc1,EC50,[4],1.81 µM (active)
same,EC50,[5],1.02 µM (active)
COc1cc(CNc2ccc3[nH]c(O)nc3c2)ccc1OCC(=O)NC(C)(C)C,EC50,[4],12.4 µM (active)
CCCn1c(C)cc(=O)c2cc(NC(=O)c3cnccn3)ccc21,EC50,[1],19.9 µM (active)
same,EC50,[2],33.7 µM (active)
Cc1nc(SCC(=O)NCC2CCCO2)nc(O)c1C (centres undefined),EC50,[3],> 195 µM (not active)
OC[C@H]1O[C@H](n2cnc3c(NC4CCCC4)nc(Cl)nc32)[C@@H](O)[C@@H]1O,AC50,Cytochrome P450 1A2,39.8 µM (inconclusive)
Cc1occc1-c1nnc(SCC(=O)Nc2ccccc2)n1C,EC50,[3],> 195 µM (not active)
O=C(c1csnn1)N1CCC[C@@]2(CCN(c3ncccn3)C2)C1,AC50,Cytochrome P450 1A2,12.6 µM (inconclusive)
CN(C)c1ccc(CNC(=O)c2cc(S(=O)(=O)N3CCOCC3)cn2C)cc1,EC50,[4],> 112 µM (not active)
same,EC50,[5],> 112 µM (not active)
N[C@](CC1c2ccccc2Oc2ccccc21)(C(=O)O)[C@@H]1C[C@@H]1C(=O)O,AC50,Cytochrome P450 1A2,31.6 µM (inconclusive)
COc1ccc(-c2nc(NC(=O)c3cc(C(C)(C)C)nn3C)sc2C)cc1,AC50,INS1,10.2 µM (active)
same,EC50,[7],1.76 µM (active)
same,EC50,[8],8.58 µM (active)
same,AC50,[6],7.12 µM (active)
Cn1c(SCC(=O)N=Nc2c(O)[nH]c3ccccc23)nc2ccccc21,EC50,[4],> 112 µM (not active)
same,EC50,[5],> 112 µM (not active)
[O-]/[N+](=C/c1ccc(F)cc1)c1ccc(Cl)cc1,EC50,[4],> 112 µM (not active)
same,EC50,[5],> 112 µM (not active)
O=C(/C=C/c1ccc(Br)o1)NCCCN1CCOCC1,EC50,[3],> 195 µM (not active)
Cc1cccc(N(CC(=O)N2CCOCC2)S(C)(=O)=O)c1,AC50,Cytochrome P450 2C19,inconclusive
O=C(O)CCC(=O)Nc1ccc2ccccc2c1,AC50,Cytochrome P450 1A2,0.0631 µM (inconclusive)
O=c1c2ccccc2nc(COc2ccccc2)n1/N=C/c1c[nH]nc1-c1ccccc1,EC50,[1],24.5 µM (active)
same,EC50,[2],19.6 µM (active)
O=C(N/N=C\c1cn(-c2ccccc2)nc1-c1ccccc1)c1ccc2c(c1)OCO2,AC50,Cytochrome P450 1A2,3.55 µM (inconclusive)
O=S(=O)(N/N=C1/CC(c2ccccc2)Oc2ccccc21)c1ccc(Br)cc1 (centres undefined),AC50,[6],2.79 µM (active)
CN(C)c1ccc(/C=N/NC(=O)C2COc3ccccc3O2)o1 (centres undefined),EC50,[3],> 195 µM (not active)
COc1ccc(/C=N/Nc2ncccc2[N+](=O)[O-])c(OC)c1,EC50,[4],2.57 µM (active)
same,EC50,[5],2.42 µM (active)
CCc1ccc(/C=N/NC(=O)c2nnn(-c3nonc3N)c2CN2CCOCC2)cc1,EC50,[4],52.9 µM (active)
same,EC50,[5],> 112 µM (not active)
CCCSc1nnc(CSc2nc3nc(C)cc(C)n3n2)o1,AC50,Cytochrome P450 2C19; read-out: AC50,15.8 µM (inconclusive)
Cc1ccc(C)c(OCCCC(C)(C)C(=O)O)c1 [GEMFIBROZIL],AC50,Cytochrome P450 1A2,12.6 µM (inconclusive)
